Here are results for one compound from article PMC10982999, “Structure-Guided Design and Optimization of Covalent VHL-Targeted Sulfonyl Fluoride PROTACs” (Journal of Medicinal Chemistry, 2024).

SMILES strings stand for the structures. Some results are limits rather than exact numbers.

In test [1] the target is T1, VHL (VCB) (Homo sapiens, UniProt P40337).
T1 construct: human VHL (UniPort entry P40337, residues 1 -213); 6xHis followed by TEV site (N, cleaved yes); made in house; host or cells: E. coli One Shot BL21(DE3)
The test is described as follows: Intact-protein LC-MS of VCB labelling. It is filed as binding. As to conditions: 100 μM compound, 24 h, room temperature. The protocol: Initially, we subjected VHL-SF2-Biotin to the streptavidin shift assay and observed a greater extent of VHL modification (44%) than for VHL-SF1-Biotin under the same conditions (Figure S2). […] Intact LC–MS analysis confirmed single labeling of VHL by VHL-SF2, with 65% conversion at 24 h (Figure S5). Although we attempted several site ID identification experiments by digesting the labeled recombinant VHL, the Ser110-containing peptide was not detected in the samples treated with VHL-SF2. This observation is consistent with a change in peptide properties that is incompatible with mass spectrometry detection compared to untreated samples (Table S2). […]
Figure S4. Dose-response of VHL-SF1 following a 2 h pre-incubation in the presence of VCB and FAM-conjugated HIF1α-derived peptide, assessed by fluorescence polarization. […]
HEK293 cells (10 × 10^6 cells at 2 × 10^5 cells/ mL) were transfected with 2.6 µg of VHL-NanoLuc plasmid (PROMEGA) plus 24 µg of transfection carrier plasmid (PROMEGA) and incubated for 20 h at 37 °C, in a 5% CO2 incubator. […] Immediately after addition of tracer and compounds, cells were treated with digitonin after which NanoBRET Nano-Glo Substrate and inhibitor were added and BRET signal was measured in a Clariostar plate reader (BMG Labtech) at 450 nm and 610 nm within 5 min after addition of digitonin. […]

Test [2] deals with T2, BRD4 (HEK293 HiBiT-BRD4 Cln3 cells) (Homo sapiens, UniProt O60885).
T2 construct: GSK; host or cells: HEK293 HiBiT-BRD4 Cln3
The test is described as follows: BRD4 HiBiT degradation assay. It is filed as cell-based. The protocol:
Figure 3 (A) Structure of BRD-SF2. […] BRD4 and loading control GAPDH levels were visualized by Western blotting. […] (D) HEK293 HiBiT-BRD4 Cln3 cells were treated with epoxomicin (1 μM) for 3 h, followed by the respective PROTAC or VHL-SF2 dose-dependently (75–0.01 μM) for 18 h. […] (E) HEK293 HiBiT-BRD4 Cln3 cells were treated with MLN4924 (1 μM) for 3 h, followed by the respective PROTAC or VHL-SF2 dose-dependently (75–0.01 μM) for 18 h. […] (F) Structure of AR-VHL-SF2 and AR2-VHL-SF2. […] The data the show mean ± SEM (n = 3).
Cellular BRD4/AR HiBiT assay
The HiBiT tagged cells were seeded at 10,000 cells per well in a 384-well plate (Thermo Scientific, 164610) at 25 µL per well in DMEM media containing 10% FBS and incubated overnight. Compounds were dispensed using D300e Digital Dispenser (HP) and normalized to 0.1% DMSO. Cells were pre-treated with Epoxomicin or MLN4924 for 3 h before treatment or directly with the PROTAC degraders for 18 or 24 h. Nano -Glo HiBiT lytic detection assay was performed as described in the manufacturer protocol (Promega). 25 µL of premixed detection reagent was added to each well of the 384 well assay plate and incubated for 15 min on an orbital shaker (at 600 RPM), and luminescence was read using a PHERAstar FS plate reader (BMG Labtech). Corresponding background RLU values were subtracted from DMSO control values and the percentage of protein (%) of were then calculated against […]
DMSO-treated controls. […]
For orientation: HiBiT is a short tag that completes a luciferase, so light tracks the accessible tagged protein.

What is called DC50 is the concentration at which degradation of the target reaches its halfway point. Regarding `Cc1cc([C@H](C(=O)N2C[C@H](S(=O)(=O)F)C[C@H]2C(=O)N[C@@H](CC(=O)OC(C)(C)C)c2ccc(-c3scnc3C)cc2)C(C)C)on1` [VHL-SF2, tert-Butyl (S)-3-((2S,4R)-4-(Fluorosulfonyl)-1-((R)-3-methyl-2-(3-methylisoxazol-5-yl)butanoyl)pyrr-olidine-2-carboxamido)-3-(4-(4-methylthiazol-5-yl)phenyl)propanoate], the “conversion, single (mono) labelling of VHL” value in test [1] was found to be 65%. Also, in test [2] (18 h, 75 μM-1 pM), the “effect on BRD4 levels” value is given as “did not affect BRD4 levels”. The DC50 in test [2] (read-out: BRD4 DC50) was over 75 µM.
